Entries after “also recorded” stand apart in the source; their conditions may differ.
How the values were obtained:
[1] = molecular target: T1, human SIRT3 (Homo sapiens, UniProt Q9NTG7); assay: Inhibition of a panel of human sirtuin homologues: SIRT3; type: biochemical
T1 sequence (Q9NTG7 1-399): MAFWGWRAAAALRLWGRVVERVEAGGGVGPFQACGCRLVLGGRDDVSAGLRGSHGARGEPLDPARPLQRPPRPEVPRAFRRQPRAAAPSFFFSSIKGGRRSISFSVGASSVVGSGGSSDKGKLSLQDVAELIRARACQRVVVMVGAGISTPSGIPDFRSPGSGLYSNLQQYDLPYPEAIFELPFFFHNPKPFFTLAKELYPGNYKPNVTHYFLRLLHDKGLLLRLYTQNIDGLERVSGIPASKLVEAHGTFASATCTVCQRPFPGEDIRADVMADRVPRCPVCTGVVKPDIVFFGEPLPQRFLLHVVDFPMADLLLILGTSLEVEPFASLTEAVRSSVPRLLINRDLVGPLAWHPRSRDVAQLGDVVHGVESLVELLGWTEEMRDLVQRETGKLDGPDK

[2] = molecular target: T2, Hst2 (Saccharomyces cerevisiae, UniProt P53686); assay: Reversibility assay; type: biochemical; details: Hst2 incubated with 10× IC50 of inhibitor, then 100-fold dilution
[3] = molecular target: T2, Hst2; assay: biochemical; type: biochemical; details: for activity at 50 µM: read-out: % Activity at 50 μM; for activity at 500 µM: read-out: % Activity at 500 μM; for inhibition of Hst2 deacetylation by scaffold analogs (in words): SAR discussion
[4] = molecular target: T2, Hst2; assay: Competition assay; type: biochemical; details: for α: mixed inhibition model
[5] = molecular target: T3, human SIRT2 (Homo sapiens, UniProt Q8IXJ6); assay: Inhibition of a panel of human sirtuin homologues: SIRT2; type: biochemical
T3 sequence (Q8IXJ6 1-352 isoform Q8IXJ6-2): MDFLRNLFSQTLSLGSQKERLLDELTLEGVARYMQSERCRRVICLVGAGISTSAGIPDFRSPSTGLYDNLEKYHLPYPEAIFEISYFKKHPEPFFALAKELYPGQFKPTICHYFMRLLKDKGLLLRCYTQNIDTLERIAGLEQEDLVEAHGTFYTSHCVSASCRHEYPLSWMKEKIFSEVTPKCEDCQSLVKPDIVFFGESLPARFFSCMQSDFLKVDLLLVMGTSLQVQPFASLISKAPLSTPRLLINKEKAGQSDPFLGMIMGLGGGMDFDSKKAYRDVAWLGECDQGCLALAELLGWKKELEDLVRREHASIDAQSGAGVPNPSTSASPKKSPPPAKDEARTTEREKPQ

[6] = molecular target: T4, full length human SIRT1 (FL SIRT1) (Homo sapiens, UniProt Q96EB6); assay: Fluorigenic
T4 sequence (Q96EB6 1-747): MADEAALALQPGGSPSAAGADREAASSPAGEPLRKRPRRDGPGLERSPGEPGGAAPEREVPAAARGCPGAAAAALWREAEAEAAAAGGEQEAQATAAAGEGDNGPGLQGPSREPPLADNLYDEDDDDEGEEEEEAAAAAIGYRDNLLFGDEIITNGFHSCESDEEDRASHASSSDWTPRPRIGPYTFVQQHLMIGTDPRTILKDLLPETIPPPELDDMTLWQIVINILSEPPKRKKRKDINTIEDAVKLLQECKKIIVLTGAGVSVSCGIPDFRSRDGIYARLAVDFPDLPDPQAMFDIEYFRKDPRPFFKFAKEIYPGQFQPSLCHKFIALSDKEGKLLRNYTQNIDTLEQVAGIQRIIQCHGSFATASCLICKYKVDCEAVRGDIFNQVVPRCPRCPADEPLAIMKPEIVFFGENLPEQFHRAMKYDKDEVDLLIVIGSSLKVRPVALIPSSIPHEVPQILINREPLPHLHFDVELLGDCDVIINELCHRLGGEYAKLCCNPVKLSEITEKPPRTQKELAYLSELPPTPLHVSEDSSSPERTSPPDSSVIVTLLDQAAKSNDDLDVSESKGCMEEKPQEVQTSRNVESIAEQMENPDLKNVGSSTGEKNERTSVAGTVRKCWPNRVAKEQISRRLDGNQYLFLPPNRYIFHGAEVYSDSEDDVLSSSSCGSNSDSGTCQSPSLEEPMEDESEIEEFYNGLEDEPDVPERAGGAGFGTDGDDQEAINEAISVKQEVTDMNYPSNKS

[7] = molecular target: T2, Hst2; assay: biochemical; details: for IC50 (Table 5, scaffold 12 analogs, Hst2): Hst2 fluorigenic assay

T2 sequence (P53686 1-294): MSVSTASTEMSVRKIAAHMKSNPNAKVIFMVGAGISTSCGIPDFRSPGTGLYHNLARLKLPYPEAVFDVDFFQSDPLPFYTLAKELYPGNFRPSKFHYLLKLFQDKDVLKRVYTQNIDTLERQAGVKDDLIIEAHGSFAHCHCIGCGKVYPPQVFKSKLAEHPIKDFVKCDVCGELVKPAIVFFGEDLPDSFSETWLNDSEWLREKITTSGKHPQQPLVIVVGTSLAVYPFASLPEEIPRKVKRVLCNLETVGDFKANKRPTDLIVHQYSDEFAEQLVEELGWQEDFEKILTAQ

**Q.** With `CCc1ccc(OCCCC(=O)Oc2ccc3c(c2)oc(=O)c2ccccc23)cc1` [Compound 11, 4-(4-Ethyl-phenoxy)-butyric acid 6-oxo-6H-benzo[c]chromen-3-yl ester] as the molecule, how does the “inhibition of human SIRT3 (in words)” value [1] read?
**A.** Its value is “but not SIRT3”.

**Q.** What about the “slope of progress curve, % of enzyme plus DMSO control” value [2] of the same molecule?
**A.** Its value is 82%.

**Q.** What about the activity at 50 µM [3] of the same molecule?
**A.** Its activity at 50 µM is < 1%.

**Q.** What about the activity at 500 µM [3] of the same molecule?
**A.** The activity at 500 µM was < 1%.

**Q.** And the “Inhibition Mechanism” value ([4]; substrate NAD+)?
**A.** Its value is “fully non-competitive inhibition model; also recorded: NC (full)”.

**Q.** And the “Inhibition Mechanism” value ([4]; substrate acetyl-lysine)?
**A.** The value was “partial non-competitive inhibition model; also recorded: NC (partial)”.

**Q.** What about the “inhibition of human SIRT2 (in words)” value [5] of the same molecule?
**A.** Its value is “potent inhibitor of SIRT2”.

**Q.** For `O=C(O)CCN1Cc2ccccc2C1=O` [Compound 12, 3-(1-Oxo-1,3-dihydro-isoindol-2-yl)-propionic acid], which “inhibition of human SIRT3 (in words)” value [1] is on record?
**A.** Its value is “only weak inhibitory activity”.

**Q.** And the “slope of progress curve, % of enzyme plus DMSO control” value [2]?
**A.** Its value is 96%.

**Q.** What about the “Inhibition Mechanism” value ([4]; substrate NAD+) of the same molecule?
**A.** The value was “fully non-competitive inhibition model; also recorded: NC (full)”.

**Q.** What about the “Inhibition Mechanism” value ([4]; substrate acetyl-lysine) of the same molecule?
**A.** Its value is “fully non-competitive inhibition model; also recorded: NC (full)”.

**Q.** What about the “inhibition of human SIRT2 (in words)” value [5] of the same molecule?
**A.** Its value is “only weak inhibitory activity”.

**Q.** What does the source list for `Oc1c(Cl)cc(Cl)c(Cl)c1Cc1c(O)c(Cl)cc(Cl)c1Cl` [Compound 13, hexachlorophene]?
**A.** IC50 [6]: 34 ± 10 µM; IC50 [7]: 12.5 ± 0.6 µM; Ki ([4]; with respect to NAD+ (varied 5-80 μM), acetyl-lysine substrate 100 μM): 3.9 ± 0.7 µM; Ki ([4]; with respect to acetyl-lysine substrate (varied 3-50 μM), NAD+ 160 μM): 2.5 ± 1 µM; Inhibition Mechanism ([4]; substrate NAD+): fully non-competitive inhibition model; also recorded: NC (full); Inhibition Mechanism ([4]; substrate acetyl-lysine): fully mixed inhibition model; also recorded: Mixed (full); α ([4]; substrate acetyl-lysine): 13.4

**Q.** For `COCC#CC1c2cc(O)c(OC)cc2CCN1C` (centres unmarked) [Compound 14a, 6-Methoxy-1-(3-methoxy-prop-1-ynyl)-2-methyl-1,2,3,4-tetrahydro-isoquinolin-7-ol], which “inhibition of human SIRT3 (in words)” value [1] is on record?
**A.** Its value is “only weak inhibitory activity”.

**Q.** And the “Inhibition Mechanism” value ([4]; substrate NAD+)?
**A.** The value was “fully mixed inhibition model; also recorded: Mixed (full)”.

**Q.** What about the α ([4]; substrate NAD+) of the same molecule?
**A.** The α was 2.6.

**Q.** And the “Inhibition Mechanism” value ([4]; substrate acetyl-lysine)?
**A.** The value was “fully non-competitive inhibition model; also recorded: NC (full)”.

**Q.** And the “inhibition of human SIRT2 (in words)” value [5]?
**A.** Its value is “only weak inhibitory activity”.

**Q.** With `COCC#CC1c2cc(O)c(OC)cc2CCN1Cc1ccc(OC)cc1` (centres unmarked) [Compound 14b] as the molecule, how does the activity at 50 µM [3] read?
**A.** The activity at 50 µM was 92%.

**Q.** And the activity at 500 µM [3]?
**A.** Its activity at 500 µM is 2%.

**Q.** How did the “IC50 (Table 5, scaffold 12 analogs, Hst2)” value [7] turn out when `C[S+]([O-])CCC(C(=O)O)N1C(=O)c2ccccc2C1=O` (centres unmarked) [Compound 00032] was run?
**A.** Its value is “No inhibition”.

**Q.** With `CC(C)C(=O)CCN1C(=O)c2ccccc2C1=O` [Compound 04265] as the molecule, how does the “IC50 (Table 5, scaffold 12 analogs, Hst2)” value [7] read?
**A.** The value was “No inhibition”.

**Q.** `O=C(O)CCN1C(=O)c2cc(Cl)c(Cl)cc2C1=O` [Compound 39008] was tested. Which “IC50 (Table 5, scaffold 12 analogs, Hst2)” value [7] did it give?
**A.** Its value is “No inhibition”.

**Q.** `Nc1ccc2c(c1)C(=O)N(CCC(=O)O)C2` [Compound 42071] was tested. Which “IC50 (Table 5, scaffold 12 analogs, Hst2)” value [7] did it give?
**A.** Its value is “No inhibition”.

**Q.** For `O=C(O)CCCN1C(=O)c2ccccc2C1=O` [Compound 47032], which “IC50 (Table 5, scaffold 12 analogs, Hst2)” value [7] is on record?
**A.** Its value is “No inhibition”.

**Q.** With `O=C(O)CCN1C(=O)c2ccc(-c3nc4ccccc4c(=O)o3)cc2C1=O` [Compound 47054] as the molecule, how does the “IC50 (Table 5, scaffold 12 analogs, Hst2)” value [7] read?
**A.** Its value is “No inhibition”.

**Q.** With `O=C1c2ccccc2C(=O)N1CCBr` [Compound 91032] as the molecule, how does the “IC50 (Table 5, scaffold 12 analogs, Hst2)” value [7] read?
**A.** The value was “No inhibition”.

**Q.** How did the “inhibition of Hst2 deacetylation by scaffold analogs (in words)” value (“inhibition … by scaffold analogs (in words)” below) [3] turn out when `Cc1cc(Cc2cc(C)c(O)c(C)c2)cc(C)c1O` [Compound 97252] was run?
**A.** The value was “most inhibitory activity”.

**Q.** `Cc1cccc(OCC(=O)Oc2ccc3c(C)cc(=O)oc3c2)c1` [Compound 5140108] was tested. Which “inhibition … by scaffold analogs (in words)” value [3] did it give?
**A.** The value was “showed some deacetylase inhibition”.

**Q.** How did the “inhibition … by scaffold analogs (in words)” value [3] turn out when `CCc1ccc(OCCCC(=O)Oc2ccc3c(C)cc(=O)oc3c2)cc1` [Compound 6802623] was run?
**A.** Its value is “significantly reduced potency”.

**Q.** Which “inhibition … by scaffold analogs (in words)” value [3] does the source give for `COc1ccc(OCCCC(=O)Oc2ccc3c(c2)CCC3)cc1` [Compound 6978945] here?
**A.** The value was “significantly reduced potency”.

**Q.** For `Cc1ccc(OCCCC(=O)Oc2ccc3c(c2)CCC3)c(C)c1` [Compound 7985301], which “inhibition … by scaffold analogs (in words)” value [3] is on record?
**A.** Its value is “significantly reduced potency”.

From publication PMC2929362 (Bioorganic & medicinal chemistry, 2009)
